Results on four compounds are retold here after paper PMC10865344, “Self-Assembly and Antimicrobial Activity of Lipopeptides Containing Lysine-Rich Tripeptides” (Biomacromolecules, 2024).

For one series, the system named is E. coli K-12. Format: cell-based, Escherichia coli. The note with it: K-12, 24 h. Here is the method: (§1) Antibacterial susceptibility testing was performed using a broth microdilution assay, against both Gram-negative and Gram-positive bacteria, as previously described by Kourmentza et al.[44] The target strains used were E. coli K-12, S. enterica NCTC 5188, and S. aureus NCDO 949. The test compounds were dissolved in water, filter-sterilized, and further diluted in Mueller-Hinton broth (MHB) which was used as the growth medium for the tests. 2-fold dilutions were performed, and 100 μL of each dilution was transferred to each well of 96-well plates. The final test concentration range of the compounds was 1.95–1000 μg/mL. Additionally, the 96-well plates contained wells with 200 μL of growth medium that served as sterility controls and wells filled with 100 μL of growth medium and 100 μL of inoculum that served as growth controls. The remaining wells were inoculated with 100 μL of a bacterial culture. The bacterial suspensions were prepared from overnight cultures in MHB. The bacterial density was adjusted to 0.5 McFarland (standard), and the suspensions were subsequently diluted 100 times using the growth medium. The 96-well plates were incubated at 37 °C for 24 h and the OD at 620 nm of the wells was assessed for growth. The MIC was defined as the lowest concentration of the antimicrobial agent tested that prevented any discernible growth after 24 h.
(§2) Since all the molecules are biocompatible at low concentrations, their antibacterial efficacy was examined in preliminary tests using a broth microdilution assay against both Gram-negative and Gram-positive bacteria. Here, E. coli K-12, S. enterica NCTC 5188 were cultured as Gram-negative bacteria and S. aureus NCDO 949 was used as a model Gram-positive bacterium. The lipopeptides were dissolved in water, filter-sterilized, and further diluted in Mueller-Hinton broth, which was used as the growth medium for the experiment to determine MIC values. […] E. coli was most susceptible to compounds P1 and P1D with MICs falling within the range of 15.63–31.25 μg/mL (Table 1). […] Overall, the P1 analogues have lower MIC values than those for the P2 analogues, especially for S. enterica.

The next series has as its system S. enterica NCTC 5188. As to the kind of experiment: Antibacterial susceptibility, broth microdilution assay (MIC). Format: cell-based, Salmonella enterica. The conditions noted are these: S. enterica NCTC 5188, broth microdilution in Mueller-Hinton broth, 37 °C, 24 h, OD 620 nm, test range 1.95–1000 μg/mL. Here is the method:
as §1, with “24 h. […]” for “24 h.”

A short description of series [1]: SAXS of micelles, core-shell sphere form factor and hard sphere structure factor fit. Format: physicochemical. Here is the method: SAXS experiments were performed on beamline B21 at Diamond (Didcot, UK). The sample solutions were loaded into the 96-well plate of an EMBL BioSAXS robot and then injected via an automated sample exchanger into a quartz capillary (1.8 mm internal diameter) with the X-ray beam. The quartz capillary was enclosed in a vacuum chamber to avoid parasitic scattering. After the sample was injected into the capillary and reached the X-ray beam, the flow was stopped during SAXS data acquisition. Beamline B21 operates with a fixed camera length (3.9 m) and fixed energy (12.4 keV). The images were captured by using a PILATUS 2 M detector. Data processing was performed by using the dedicated beamline software ScÅtter.
More quantitative information about these self-assembled nanostructures was obtained from SAXS, also performed for 1 wt % aqueous solutions of the four lipopeptides. Consistent with cryo-TEM, the form factors for P1, P1D, P2, and P2D can be fitted based on the core–shell sphere structure corresponding to a hydrophobic core and peptide corona. The fit parameters listed in SI Table S1 show outer radii in the range (2.47–2.90 ± 0.4) nm, consistent with cryo-TEM. The inner core radius is 1.45–1.56 nm, which is consistent with the length of an extended C16 lipid chain plus the first hydrophobic amino acid (Y or W). […] The shell thickness may be compared to the length of a tripeptide in an extended structure (such as PPII), 3 × 0.31 nm = 0.93 nm (residue translation value taken from ref ([55])) and is in good agreement with this value for P1, P1D, and P2D. […] The form factor parameters are the same within uncertainties for the other three lipopeptides. The association number can be estimated for P1 (similar values are expected for P1D and P2D since the micelle radius and molecular volume are similar) using the volume of a micelle Vmic = 4/3π(2.52 nm)^3 = 67.0 nm^3, while the molecular volume Vmol = 0.62 nm^3 was obtained from the hydrophobicity surface/molecular volume calculation in UCSF Chimera.[56] This leads to an estimated association number p = Vmic/Vmol = (108 ± 20). […]

The subject of a further series is S. aureus NCDO 949. Format: cell-based, Staphylococcus aureus. The note with it: NCDO 949, 24 h. Here is the method: as §1, §2
Series [2] in a line: Critical aggregation concentration (CAC) by ANS fluorescence probe assay. Format: physicochemical. The conditions noted are these: 2 × 10^–3 wt % ANS solution, λex = 356 nm, emission 486 nm, 25 °C, aqueous solution. Here is the method: Fluorescence experiments were carried out using a Varian Cary Eclipse spectrofluorometer in 4 mm inner-width quartz cuvettes. Excitation and emission bandwidths of 2.5 nm were used as the experimental settings. The temperature was set at 25 °C for all of the experiments. The CAC value for all of the lipopeptides was assessed by fluorescence experiments with 8-anilo-1-naphthalenesulfonic acid (ANS). ANS is a suitable fluorophore to determine the CAC value, due to changes in local hydrophobicity.[43] For this assay, various concentrations of samples were prepared in 2 × 10^–3 wt % ANS solution. Fluorescence spectra were recorded from 400 to 670 nm with λex = 356 nm.
To determine the CAC value of individual lipopeptides, the results were plotted as I/I0 versus log(c/wt %), where I stands for the maximum fluorescence intensity of ANS containing the various concentrations of samples and I0 stands for the intensity for the control, i.e., ANS solution without lipopeptide.
To determine CAC values of these lipopeptides, fluorescence probe assays using ANS were performed.[43] Emission spectra of the four lipopeptides were collected at different concentrations after excitation at 356 nm. At higher concentrations, an emission peak at 486 nm is visible. […] The lower CAC values for P2 and P2D are due to the higher hydrophobicity of tryptophan than tyrosine.

For series [3], the system named is L929 murine fibroblast cell lines. The conditions noted are these: 48 h, 0.05 wt %.
Protocol: L929 murine fibroblast cell lines (ECACC General Cell Collection) were grown in Dulbecco’s modified Eagle’s medium (DMEM) supplemented with 10% fetal bovine serum (FBS), 20 mM HEPES, and 1% GlutaMAX. The cells were maintained at pH 7.4, 37 °C, and 5% CO2 in 25 cm^2 cell culture flasks.
For the cytotoxicity assay, approximately 6000 cells per well were seeded in 96-well plates. The medium was exchanged after 24 h by adding solutions of different concentrations of the lipopeptides ranging from 0.05 to 0.0001 wt %. After 48 h of treatment, cell viability was assessed using an MTT [3-(4, 5-dimethylthiazolyl-2)-2, 5-diphenyltetrazolium bromide] assay. Here, the culture medium was removed, followed by the addition of a solution of MTT in DMEM medium at a concentration of 0.5 mg/mL. The plate was incubated for 4 h at 37 °C. Next, to dissolve the formazan crystals, dimethyl sulfoxide was added. Thereafter, using an automatic plate reader, the absorbance was measured at 560 nm. Cell survival was expressed as a percentage of viable cells in the presence of peptides compared with control cells grown in their absence. The assay was repeated three times, and the results were averaged. Statistical significance was tested using multiple Student’s t-tests.
Here, the cytotoxicity of all the lipopeptides was investigated by MTT assays on L929 murine fibroblast cell lines. […] For all the lipopeptides, the cytotoxicity results were obtained after 48 h of cell culture.
Setting [4] is: 1 wt% sample at native pH = 4, core-shell sphere form factor.

In brackets after ≈: the same amount, converted by molar mass. Where a SMILES comes first, the peptide text is derived from it. [ ]: non-standard residue; d: D form. The star is where a group is joined. Palmitoyl = CCCCCCCCCCCCCCCC(=O)*

Take `CCCCCCCCCCCCCCCC(=O)N[C@@H](Cc1c[nH]c2ccccc12)C(=O)N[C@H](CCCCN)C(=O)N[C@H](CCCCN)C(N)=O` [P2D] (Palmitoyl-Trp-[dK]-[dK]-NH2): the MIC against E. coli K-12 is 31.25 to 62.5 mg/L; with S. enterica NCTC 5188, 62.5 mg/L (≈ 89.5 µM); against S. aureus NCDO 949, 31.25 to 62.5 mg/L. Also, the “Ri, micelle inner core radius” value in series [1] (setting [4]) is listed as 15.1 Å. For the same compound, the “Ro, micelle outer radius” value in series [1] (setting [4]) is recorded as 26.3 Å. Moreover, the “RHS, hard sphere radius” value in series [1] (1 wt% sample at native pH = 4, hard sphere structure factor) came out at 79.3 Å. For the same compound, the “CAC (concentration at the breakpoint of I/I0 at 486 nm vs concentration)” value in series [2] is reported as 0.00257 ± 0.05 wt %. In addition, in series [3], the cell viability worked out at 13.0 ± 1.1%.
For the compound `CCCCCCCCCCCCCCCC(=O)N[C@@H](Cc1c[nH]c2ccccc12)C(=O)N[C@@H](CCCCN)C(=O)N[C@@H](CCCCN)C(N)=O` [P2] (Palmitoyl-Trp-Lys-Lys-NH2), the MIC against E. coli K-12 is 15.63 to 62.5 mg/L; in the series on S. enterica NCTC 5188, 62.5 to 250 mg/L; in the series on S. aureus NCDO 949, 31.25 to 62.5 mg/L. The “lower range MIC value for E. coli as molar concentration” value in the series with E. coli K-12 fell in the range of 22 to 23 µM. Further, the cell viability in series [3] was determined as 20.2 ± 2.8%.
On to `CCCCCCCCCCCCCCCC(=O)N[C@@H](Cc1ccc(O)cc1)C(=O)N[C@H](CCCCN)C(=O)N[C@H](CCCCN)C(N)=O` [P1D] (Palmitoyl-Tyr-[dK]-[dK]-NH2), for which the MIC is 15.63 to 31.25 mg/L against E. coli K-12 and 31.25 mg/L (≈ 46.3 µM) against S. aureus NCDO 949. In addition, in the series on E. coli K-12, the “lower range MIC value for E. coli as molar concentration” value was in the range of 22 to 23 µM. Further, the cell viability in series [3] is 44.1 ± 7.6%.
The like results for `CCCCCCCCCCCCCCCC(=O)N[C@@H](Cc1ccc(O)cc1)C(=O)N[C@@H](CCCCN)C(=O)N[C@@H](CCCCN)C(N)=O` [P1] (Palmitoyl-Tyr-Lys-Lys-NH2) were, in that order, 15.63 to 31.25 mg/L, 31.25 to 62.5 mg/L, 22 to 23 µM and 53.1 ± 5.1%.
